Columns and labels:
[1] = tested on: biosynthesis of LTB4 by isolated human neutrophils; assay: Inhibition of LTB4 biosynthesis by isolated human neutrophils (PMN); format: cell-based; details: Neutrophil, A23187 stimulated human PMN, read-out: % Inhibition of LTB4 Synthesis
Protocol: The ability of the compounds of the invention to inhibit the biosynthesis of LTB4 by isolated human neutrophils is evaluated in the following assay, which is carried out in this manner.
A leukocyte enriched blood sample obtained from a healthy donor is procured by leukophoresis using a Haemonetics model 30+ blood processor (Biological Specialties, Inc., Lansdale, Pa.). The top "platelet-rich" layer is removed after a low speed spin (35×g, 15 min, 25° C.) of the sample. The remaining cell suspension is centrigued (400×g, 10 min, 25° C.) to sediment the remaining cells. The supernatant is discarded and the cell pellet resuspended in 120 ml HBSS (without Ca^++ /Mg++). The cell suspension is subjected to ficoll-hypaque sedimentation (Histopaque 1077, 400×g, 30 min, 25° C.). Contaminating erythrocytes are lysed by hypotonic shock (1 min). The cells are then washed once with 40 ml of HBSS and resuspended with HBS S (without Ca^++ /Mg^++) to a concentration of 2.5×10^7 cells/ml for further use. Greater than 95% purity is obtained as assessed by microscopic examination.
One ml of human PMN (2.5×10^7 cells/ml) is incubated with vehicle or drugs (10 μl) for 10 min at 30° C. After preincubation, an equal volume of HBSS (1 ml) containing 2.4 mM CaCl2, 6 μM calcium ionophore A23187 and 50 μCi[^3 H]-acetate is then incubated at 30° C. for 15 minutes. An aliquot (100 μl) of the reaction mixture is taken out and mixed with 900 μl of 15% ethanol. LTB4 is extracted by using solid phase extraction on reverse phase C18 columns to remove excess [^3 H]-acetate and PAF. The C18 column is prewashed once with 2 ml of ethanol and water. The sample aliquot is acidified with 0.1 N HCl to pH3 before applying to the column. The column is then washed with 2 ml of water followed by 2 ml of 15% ethanol and 2 ml of petroleum ether to remove excess labeled acetate. The sample is eluted with 2 ml of ethyl acetate. The collected samples are dried with nitrogen and resuspended in 0.5 ml RIA buffer. The quantity of LTB4 in the sample is obtained from RIA determination.
Data presented are the mean +/- s.d. of the values relative to control A23187 stimulated cells for each experiment assayed in triplicate. Percent inhibition when used is calculated as:
% Inhibition=100-[(×.div.Control )×100]
Dose response analysis is performed by non-linear regression analysis for curve fitting and IC50 determination.

[2] = target: T1, LTD4-induced contractions of isolated guinea pig trachea (Cavia porcellus, UniProt Q2NNR5); assay: In vitro isolated guinea pig trachea assay, LTD4 antagonist activity; set-up: species or system guinea pig (male Hartley); details: 1 × 10^-5 M
T1 construct: isolated guinea pig trachea; from tissue; host or cells: tracheal rings of male Hartley guinea pigs
T1 sequence (Q2NNR5 1-340): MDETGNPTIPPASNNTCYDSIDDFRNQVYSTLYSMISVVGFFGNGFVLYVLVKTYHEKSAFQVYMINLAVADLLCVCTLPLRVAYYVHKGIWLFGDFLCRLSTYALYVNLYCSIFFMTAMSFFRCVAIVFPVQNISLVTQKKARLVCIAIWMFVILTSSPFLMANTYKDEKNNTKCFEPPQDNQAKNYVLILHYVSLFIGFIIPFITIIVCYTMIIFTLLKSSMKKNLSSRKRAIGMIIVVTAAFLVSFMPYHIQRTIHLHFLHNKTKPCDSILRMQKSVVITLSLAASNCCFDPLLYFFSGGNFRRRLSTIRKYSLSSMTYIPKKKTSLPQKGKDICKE
Protocol: The LTD4 antagonist activity of the compounds of the invention is assessed in the in vitro isolated guinea pig trachea assay. This assay is carried out as follows: Male Hartley guinea pigs (350-400 g) are euthanized by a blow to the head, the neck is opened and the trachea removed. The trachea is maintained in aerated physiological salt solution, cleared of connective tissue and fat and cut into rings approximately 2 mm in width (usually containing two cartilaginous segments per ring). Two pieces of silk suture are then passed through the lumen of the tracheal ting and are tied around the cartilage, one on each side of the trachealis muscle. The tracheal ring is suspended between a glass hook and a force displacement transducer in a 10 ml organ bath for measurement of isometric tension. […] The tracheal rings are maintained at 2 g resting tension and equilibrated for 45 minutes (with frequent washing and readjustment of resting tension). The tracheal […] contracted by the addition of carbachol (3×10^-6 M), to determine tissue responsiveness and establish a reference contraction. On attainment of a stable level of contraction (approximately 30 minutes), the tissues are washed several times until baseline tension has been restored and the re-equilibrated for 30 minutes. The tissues are then incubated for 45 minutes with a test antiagonist (either 1×10^-6 M or 1×10^-5 M) or 10 μl of an appropriate solvent control (control, nontreated). One tissue in each group serves as the control. Twenty minutes prior to the construction of the LTD4 cumulative concentration-response curve, L-[…]×10^-2 M final bath concentration) is added to inhibit bioconversion of LTD4 to LTE4. Only one LTD4 concentration-response curve is constructed in each tissue. All responses to LTD4 in an individual tissue are measured as a percentage of the reference contraction of that tissue to carbachol. LTD4 antagonist activity is determined by comparison of the concentration response curves of LTD4 in the presence and absence of antagonist. Assessment of the relative rightward shift of the antagonist treated curve relative to the solvent (control) treated tissue is calculated as a concentration ratio (Eq. A) and used in subsequent calculations to derive an antagonist pKB value (Eqs. B and C). […] If a compound is found to be active and/or depress the maximal response to LTD4, then a range of concentrations of the test compound should be used generating multiple concentration ratios which would then be used to perform a Schild analysis, and determination of a pA2 value where appropriate.

With CC(C(=O)N(C)O)c1ccc(-c2ccc(OCc3csc(-c4ccccc4)n3)cc2)cc1 (stereo not drawn) [Example 21, N-Hydroxy-N,α-dimethyl-4'-[(2-phenylthiazol-4-yl)methoxy][1,1'-biphenyl]-4-acetamide] the inhibition at 2.5 µM [1] was 91.2% and the Kb [2] was > 10 µM.
